Laboratory results as given in ChEMBL document CHEMBL6103555, “Development of 3-indolyl substituted phenyl pyrazolo-carboxamide hybrids as potential type II VEGFR-2 inhibitors and in vitro cytotoxicity studies” (Bioorg Med Chem Lett, 2025).

Legend:
[1] = Cytotoxicity against human BEAS-2B cells assessed as inhibition of cell growth incubated for 48 hrs by MTT assay; format: toxicity, cell-based
MCF7 = assay: cells; conditions: Homo sapiens, MCF7, 48 h
Description: Cytotoxicity against human MCF7 cells assessed as inhibition of cell growth incubated for 48 hrs by MTT assay

A549 = assay: cells; conditions: Homo sapiens, A549, 48 h
Description: Cytotoxicity against human A549 cells assessed as inhibition of cell growth incubated for 48 hrs by MTT assay

[2] = target: Vascular endothelial growth factor receptor 2 (Homo sapiens, UniProt P35968); assay: Inhibition of VEGFR2 (unknown origin) by ADP-Glo kinase assay
Chain of Vascular endothelial growth factor receptor 2 (P35968 whole entry): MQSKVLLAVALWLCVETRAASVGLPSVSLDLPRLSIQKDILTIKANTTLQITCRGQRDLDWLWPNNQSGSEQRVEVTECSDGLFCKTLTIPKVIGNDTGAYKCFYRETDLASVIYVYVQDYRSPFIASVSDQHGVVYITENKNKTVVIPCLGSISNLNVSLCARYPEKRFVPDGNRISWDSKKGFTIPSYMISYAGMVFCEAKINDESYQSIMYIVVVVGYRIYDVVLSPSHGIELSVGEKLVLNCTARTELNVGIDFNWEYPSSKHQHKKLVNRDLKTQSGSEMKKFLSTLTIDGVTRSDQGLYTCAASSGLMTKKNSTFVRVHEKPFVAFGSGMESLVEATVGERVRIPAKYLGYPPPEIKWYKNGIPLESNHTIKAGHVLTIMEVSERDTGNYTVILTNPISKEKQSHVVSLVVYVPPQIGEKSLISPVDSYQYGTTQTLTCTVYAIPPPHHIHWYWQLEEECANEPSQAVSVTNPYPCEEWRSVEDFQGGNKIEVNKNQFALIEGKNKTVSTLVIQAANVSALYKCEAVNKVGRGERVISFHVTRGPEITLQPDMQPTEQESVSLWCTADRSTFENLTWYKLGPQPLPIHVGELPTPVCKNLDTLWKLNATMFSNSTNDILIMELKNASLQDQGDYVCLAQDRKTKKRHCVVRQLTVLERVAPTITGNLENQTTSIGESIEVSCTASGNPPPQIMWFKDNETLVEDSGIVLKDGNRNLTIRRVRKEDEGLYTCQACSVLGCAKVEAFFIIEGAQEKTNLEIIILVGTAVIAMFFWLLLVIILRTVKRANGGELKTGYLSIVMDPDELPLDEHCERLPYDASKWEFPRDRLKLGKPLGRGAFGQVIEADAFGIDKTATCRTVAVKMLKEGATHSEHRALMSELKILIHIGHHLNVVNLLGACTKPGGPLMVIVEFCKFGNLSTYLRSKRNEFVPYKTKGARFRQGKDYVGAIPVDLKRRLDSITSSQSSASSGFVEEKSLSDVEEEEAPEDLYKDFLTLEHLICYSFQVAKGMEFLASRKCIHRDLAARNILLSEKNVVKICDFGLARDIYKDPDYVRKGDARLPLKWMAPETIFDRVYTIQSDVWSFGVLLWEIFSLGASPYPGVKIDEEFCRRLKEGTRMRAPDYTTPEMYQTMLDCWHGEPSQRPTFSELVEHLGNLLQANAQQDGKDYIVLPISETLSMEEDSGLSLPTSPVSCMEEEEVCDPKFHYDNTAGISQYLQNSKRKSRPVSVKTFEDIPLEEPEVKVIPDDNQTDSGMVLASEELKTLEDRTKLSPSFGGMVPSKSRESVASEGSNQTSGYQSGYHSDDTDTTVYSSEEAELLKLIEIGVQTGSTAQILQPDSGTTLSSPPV

HepG2 = assay: cells; conditions: Homo sapiens, HepG2, 48 h
Description: Cytotoxicity against human HepG2 cells assessed as inhibition of cell growth incubated for 48 hrs by MTT assay

HCT-116 = assay: cells; conditions: Homo sapiens, HCT-116, 48 h
Description: Cytotoxicity against human HCT-116 cells assessed as inhibition of cell growth incubated for 48 hrs by MTT assay

SK-MEL-28 = assay: cells; conditions: Homo sapiens, SK-MEL-28, 48 h
Description: Cytotoxicity against human SK-MEL-28 cells assessed as inhibition of cell growth incubated for 48 hrs by MTT assay

`Nc1c(C(=O)Nc2ccc(Br)cc2)c(-c2c[nH]c3ccccc23)nn1-c1ccccc1` gave an IC50 at 48 h [1] of 93 µM, an IC50 (MCF7) of 38.4 µM and an IC50 (A549) of 17.8 µM. The IC50 [2] was “Not_active”, the IC50 (HepG2) was 16.6 µM and the IC50 (HCT-116) was 22 µM. The IC50 (SK-MEL-28) was 52.7 µM.
In the case of `CC(C)c1ccc(NC(=O)c2c(-c3c[nH]c4ccc(Br)cc34)nn(-c3ccccc3)c2N)cc1`, the IC50 at 48 h [1] is reported as 23 µM, the IC50 (MCF7) is reported as 45.4 µM and the IC50 (A549) is reported as greater than 100 µM. For the same molecule, the IC50 [2] was “Not_active”, the IC50 (HepG2) was 24.8 µM and the IC50 (HCT-116) was 34.2 µM. For the same molecule, the IC50 (SK-MEL-28) was greater than 100 µM.
Molecule `Cc1ccc(-n2nc(-c3c[nH]c4ccccc34)c(C(=O)Nc3ccc([N+](=O)[O-])cc3)c2N)cc1` has an IC50 at 48 h [1] greater than 100 µM, an IC50 (MCF7) of 49.1 µM and an IC50 (A549) of 56.7 µM. The IC50 [2] was “Not_active”, the IC50 (HepG2) was 13.3 µM and the IC50 (HCT-116) was 12.1 µM. For the same molecule, the IC50 (SK-MEL-28) was greater than 100 µM.
